The record followed here is ChEMBL document CHEMBL5376011, “Discovery of Anti-Hypercholesterolemia Agents Targeting LXRα from Marine Microorganism-Derived Natural Products” (J Nat Prod, 2024).

Series [1] deals with HepG2. The series is described as follows: Improvement of lipid metabolism in palmitic acid and oleic acid induced human HepG2 cell model of hepatic steatosis assessed as reduction in total cellular cholesterol level at 25 uM preincubated with palmitic acid and oleic acid for 48 hrs followed by compound addition and measured after 24 hrs. The series is classed as functional, cell-based.

In series [2] the test system is Mus musculus. The series is described as follows: Antihypercholesterolemic activity against high cholesterol diet fed LXRalpha knockout C57BL/6J mouse assessed as reduction in serum alanine aminotransferase level at 300 microg/kg, ip administered every 2 days for 15 days. It is filed as functional, organism-based. Particulars: dose 300.0 µg/kg, time 15.0 day.
In series [3] the test system is Mus musculus. The series is described as follows: Antihypercholesterolemic activity against high cholesterol diet fed C57BL/6J mouse assessed as reduction in degree of hepatic steatosis at 300 microg/kg, ip administered every 2 days for 15 days by H&E staining based analysis. Particulars: dose 300.0 µg/kg, time 15.0 day. It is filed as functional, organism-based.

Series [4] deals with T1, Oxysterols receptor LXR-alpha (Homo sapiens) (UniProt Q13133).
T1 sequence (whole entry): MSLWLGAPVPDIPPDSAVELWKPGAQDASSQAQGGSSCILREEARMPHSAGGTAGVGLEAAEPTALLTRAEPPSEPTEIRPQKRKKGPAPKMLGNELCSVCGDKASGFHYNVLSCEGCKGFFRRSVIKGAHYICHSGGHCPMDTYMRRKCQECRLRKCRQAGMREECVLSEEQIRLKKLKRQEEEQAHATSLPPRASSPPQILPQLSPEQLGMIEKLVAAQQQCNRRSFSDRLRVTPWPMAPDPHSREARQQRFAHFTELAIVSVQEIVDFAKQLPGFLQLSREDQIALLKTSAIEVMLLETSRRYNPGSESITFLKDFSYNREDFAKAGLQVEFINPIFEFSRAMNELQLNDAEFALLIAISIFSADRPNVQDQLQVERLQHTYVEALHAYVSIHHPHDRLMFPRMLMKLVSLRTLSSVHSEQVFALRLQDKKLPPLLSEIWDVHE
The series is described as follows: Agonist activity at LXRalpha in human HepG2 cells assessed as upregulation of ABCA1 protein expression level at 25 uM incubated for 24 hrs by Western blot analysis. The series is classed as cell-based. Particulars: filed as agonist.

In series [5] the test system is Mus musculus. In words: Antihypercholesterolemic activity against high cholesterol diet induced C57BL/6J mouse assessed as reduction in total cholesterol level in plasma at 300 microg/kg, ip administered every 2 days for 15 days. The series is classed as functional, organism-based. Particulars: dose 300.0 µg/kg, time 15.0 day.
Series [6] relates to Mus musculus. In words: Antihypercholesterolemic activity against high cholesterol diet induced C57BL/6J mouse assessed as reduction in serum alanine aminotransferase level at 300 microg/kg, ip administered every 2 days for 15 days. The note with it: dose 300.0 µg/kg, time 15.0 day. It is filed as functional, organism-based.
Series [7] relates to HepG2. In words: Effect on LXRbeta mRNA expression in human HepG2 cells at 25 uM incubated for 24 hrs by RT-qPCR analysis. It is filed as functional, cell-based.
Series [8] has as its target T2, Oxysterols receptor LXR-alpha (Homo sapiens, UniProt Q13133).
T2 sequence (Q13133 whole entry): T1 sequence (whole entry)
The series is described as follows: Binding affinity to full length human LXRalpha assessed as dissociation constant by SPR analysis.

Series [9] relates to Mus musculus. The series is described as follows: Antihypercholesterolemic activity against high cholesterol diet fed LXRalpha knockout C57BL/6J mouse assessed as improvement in hepatocellular degeneration at 300 microg/kg, ip administered every 2 days for 15 days by H&E staining based analysis. The note with it: dose 300.0 µg/kg, time 15.0 day. The series is classed as functional, organism-based.

Series [10] relates to Mus musculus. In words: Antihypercholesterolemic activity against high cholesterol diet induced C57BL/6J mouse assessed as reduction in hepatocyte damage at 300 microg/kg, ip administered every 2 days for 15 days. The series is classed as functional, organism-based. Particulars: dose 300.0 µg/kg, time 15.0 day.
Series [11] relates to Mus musculus. In words: Antihypercholesterolemic activity against high cholesterol diet fed C57BL/6J mouse assessed as improvement in hepatocyte liposis at 300 microg/kg, ip administered every 2 days for 15 days by Oil red staining based analysis. The series is classed as functional, organism-based. Particulars: dose 300.0 µg/kg, time 15.0 day.
In series [12] the test system is Mus musculus. In words: Antihypercholesterolemic activity against high cholesterol diet fed C57BL/6J mouse assessed as reduction in degree of hepatic steatosis at 300 microg/kg, ip administered every 2 days for 15 days by Oil red staining based analysis. The series is classed as functional, organism-based. Particulars: dose 300.0 µg/kg, time 15.0 day.
Series [13] can be described thus: Cytotoxicity against human HepG2 cells assessed as reduction in cell viability incubated for 24 hrs by CCK8 assay. It is filed as toxicity, cell-based.
The target in series [14] is T1, Oxysterols receptor LXR-alpha (Homo sapiens). In words: Agonist activity at LXRalpha in human HepG2 cells assessed as upregulation of CYP7A1 protein expression level at 25 uM incubated for 24 hrs by Western blot analysis. The series is classed as cell-based. Particulars: filed as agonist.
Series [15] deals with Mus musculus. In words: Antihypercholesterolemic activity against high cholesterol diet fed LXRalpha knockout C57BL/6J mouse assessed as improvement in liver lipid droplet accumulation at 300 microg/kg, ip administered every 2 days for 15 days by H&E staining based analysis. It is filed as functional, organism-based. Particulars: dose 300.0 µg/kg, time 15.0 day.
Series [16] deals with Mus musculus. The series is described as follows: Antihypercholesterolemic activity against high cholesterol diet fed LXRalpha knockout C57BL/6J mouse assessed as reduction in serum high density lipoprotein cholesterol level at 300 microg/kg, ip administered every 2 days for 15 days. It is filed as functional, organism-based. The note with it: dose 300.0 µg/kg, time 15.0 day.

Series [17] concerns Mus musculus. The series is described as follows: Antihypercholesterolemic activity against high cholesterol diet fed C57BL/6J mouse assessed as reduction in hepatocyte lysis necrosis at 300 microg/kg, ip administered every 2 days for 15 days by H&E staining based analysis. The series is classed as functional, organism-based. The note with it: dose 300.0 µg/kg, time 15.0 day.

Series [18] concerns Mus musculus. The series is described as follows: Antihypercholesterolemic activity against high cholesterol diet fed LXRalpha knockout C57BL/6J mouse assessed as reduction in serum triglycerides level at 300 microg/kg, ip administered every 2 days for 15 days. It is filed as functional, organism-based. The note with it: dose 300.0 µg/kg, time 15.0 day.
Series [19] relates to Mus musculus. The series is described as follows: Antihypercholesterolemic activity against high cholesterol diet fed LXRalpha knockout C57BL/6J mouse assessed as improvement in hepatocellular degeneration at 300 microg/kg, ip administered every 2 days for 15 days by Oil red staining based analysis. The series is classed as functional, organism-based. The note with it: dose 300.0 µg/kg, time 15.0 day.

Series [20] has as its system Mus musculus. The series is described as follows: Antihypercholesterolemic activity against high cholesterol diet induced C57BL/6J mouse assessed as reduction in plasma low-density lipoprotein cholesterol level at 300 microg/kg, ip administered every 2 days for 15 days. It is filed as functional, organism-based. Particulars: dose 300.0 µg/kg, time 15.0 day.
Series [21] relates to Mus musculus. In words: Antihypercholesterolemic activity against high cholesterol diet fed C57BL/6J mouse assessed as improvement in hepatocyte degeneration at 300 microg/kg, ip administered every 2 days for 15 days by Oil red staining based analysis. Particulars: dose 300.0 µg/kg, time 15.0 day. It is filed as functional, organism-based.
For series [22], the target named is T1, Oxysterols receptor LXR-alpha (Homo sapiens). The series is described as follows: Agonist activity at LXRalpha in human HepG2 cells assessed as upregulation of ABCA1 mRNA expression by measuring fold change at 25 uM incubated for 24 hrs by RT-qPCR analysis. It is filed as cell-based. The note with it: filed as agonist.

Structures are written as SMILES. The source made the active and inactive calls. The calls are words filed in the database; no cut-off is given here.

As for `COc1ccc2c(C[C@@H]3NC(=O)[C@@H]4CCCN4C3=O)c(CC=C(C)C)[nH]c2c1` [TRYPROSTATIN A], the outcome (with HepG2 [1]; with Mus musculus [3]; in series [4]; in the series with Mus musculus [5]; with Mus musculus [6]; in the series with Mus musculus [9]) was Active. Also, the outcome (in the series with Mus musculus [10]; in the series on Mus musculus [11]; with Mus musculus [12]; in series [14]; in the series with Mus musculus [15]; in the series with Mus musculus [17]) was Active. The outcome in the series with Mus musculus [19], with Mus musculus [20] and in the series with Mus musculus [21] was Active. In addition, the result in the series with Mus musculus [2], in the series with HepG2 [7], with Mus musculus [16] and in the series on Mus musculus [18] was inactive. Further, the Kd in series [8] is 10.2 nM. In addition, the IC50 at 24 h in series [13] is > 50 µM. In addition, in series [22], the fold change (FC) amounted to 2.05.
